In ChEMBL document CHEMBL1201862, “PubChem BioAssay data set” (2004):
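The compound was tested at five concentrations on cells cultured in 96-well plates, with a 48-hour exposure period. GI50 = concentration required for 50% inhibition of growth.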 Calls of active or inactive are those of the source. Cut-off read from the data, not from the text of the source: active = GI50 up to about 1.1 µM and inactive = higher.

Assays:
Experiment in all cases: NCI-60 cell line screen, 48 h
HCT-116 = tested on: HCT-116
OVCAR-3 = tested on: OVCAR-3
MDA-N = tested on: MDA-N
BT-549 = tested on: BT-549
TK-10 = tested on: TK-10
HCC 2998 = tested on: HCC 2998
SK-MEL-28 = tested on: SK-MEL-28
SW-620 = tested on: SW-620
IGROV-1 = tested on: IGROV-1
SK-OV-3 = tested on: SK-OV-3
SR = tested on: SR
NCI-H23 = tested on: NCI-H23
UACC-257 = tested on: UACC-257
DU-145 = tested on: DU-145
SK-MEL-5 = tested on: SK-MEL-5
U-251 = tested on: U-251
HOP-92 = tested on: HOP-92
SNB-75 = tested on: SNB-75
SK-MEL-2 = tested on: SK-MEL-2
NCI-H522 = tested on: NCI-H522

Row | Compound | GI50 (HCT-116) | GI50 (OVCAR-3) | GI50 (MDA-N) | GI50 (BT-549) | GI50 (TK-10) | GI50 (HCC 2998) | GI50 (SK-MEL-28) | GI50 (SW-620) | GI50 (IGROV-1) | GI50 (SK-OV-3) | GI50 (SR) | GI50 (NCI-H23) | GI50 (UACC-257) | GI50 (DU-145) | GI50 (SK-MEL-5) | GI50 (U-251) | GI50 (HOP-92) | GI50 (SNB-75) | GI50 (SK-MEL-2) | GI50 (NCI-H522)
1 | COC(=O)C1=C(O)C(C(=O)OC)[C@]2(O)[C@H](C(=O)OC)[C@H]1C[C@@H](c1ccc(C(F)(F)F)cc1)[C@H]2C(=O)OC (stereo partly specified) | 2.54 µM (inactive) | 3.78 µM (inactive) | 3.27 µM (inactive) | 3.25 µM (inactive) | 4.73 µM (inactive) | 3.47 µM (inactive) | 4.89 µM (inactive) | 2.76 µM (inactive) | 5.15 µM (inactive) | 6.35 µM (inactive) | 2.56 µM (inactive) | 3.58 µM (inactive) | 4.6 µM (inactive) | 4.24 µM (inactive) | 2.49 µM (inactive) | 2.41 µM (inactive) | 5.27 µM (inactive) | 4.13 µM (inactive) | 2.79 µM (inactive) | 
2 | COC(=O)c1ccc(C(=O)NC(Cc2ccc(Oc3cc(CC(NC(=O)c4ccccc4C(=O)OC)C(=O)OC)ccc3OC)cc2)C(=O)OC)cc1 (stereo unspecified) | > 100 µM (inactive) | > 100 µM (inactive) | > 100 µM (inactive) | 74.8 µM (inactive) | > 100 µM (inactive) | > 100 µM (inactive) | > 100 µM (inactive) | > 100 µM (inactive) | > 100 µM (inactive) | 67 µM (inactive) | > 100 µM (inactive) | > 100 µM (inactive) | > 100 µM (inactive) | > 100 µM (inactive) |  |  | > 100 µM (inactive) | 42.6 µM (inactive) | 77.8 µM (inactive) | 
3 | CCN(CC)c1ccc2nc3ccc(/N=N/c4c(O)ccc5ccccc45)cc3[n+](-c3ccccc3)c2c1 | > 100 µM (inactive) | > 100 µM (inactive) | > 100 µM (inactive) | > 100 µM (inactive) | > 100 µM (inactive) |  | > 100 µM (inactive) | > 100 µM (inactive) | > 100 µM (inactive) | > 100 µM (inactive) | 1.47 µM (inactive) | > 100 µM (inactive) | > 100 µM (inactive) | > 100 µM (inactive) | > 100 µM (inactive) | > 100 µM (inactive) | > 100 µM (inactive) | > 100 µM (inactive) | > 100 µM (inactive) | > 100 µM (inactive)
4 | C=C1N(S(=O)(=O)c2ccc(C)cc2)C(=O)OCC12CCCC2 | 55.3 µM (inactive) | 52.4 µM (inactive) | > 100 µM (inactive) | > 100 µM (inactive) | > 100 µM (inactive) | > 100 µM (inactive) | > 100 µM (inactive) | > 100 µM (inactive) | 31.3 µM (inactive) | 41.4 µM (inactive) | 45.7 µM (inactive) | 59.3 µM (inactive) | 80.4 µM (inactive) | > 100 µM (inactive) | 25.4 µM (inactive) | 76 µM (inactive) | > 100 µM (inactive) | 14.1 µM (inactive) |  | > 100 µM (inactive)
5 | COc1cc([C@@H]2c3cc4c(cc3C[C@H]3COC(=O)[C@@H]32)OCO4)cc(OC)c1OC [DESOXYPODOPHYLLOTOXIN] |  |  | 0.00222 µM (active) | < 0.01 µM (active) | < 0.01 µM (active) | 0.00791 µM (active) | 0.0125 µM (active) | 0.0091 µM (active) | 0.0103 µM (active) | 0.0803 µM (active) | 0.00376 µM (active) | 0.00714 µM (active) | 0.00828 µM (active) | 0.00273 µM (active) | 0.00791 µM (active) | 0.00634 µM (active) | 0.199 µM (active) | 0.0655 µM (active) | 0.0074 µM (active) | 
